Source: patent US8937050B2, “Methods and compositions for treatment of autism” (The Johns Hopkins University, priority 2011, dated 2015)

Tests used:
JUN, PGC1α and PGC1β = assay: RT-PCR of JUN and mitochondrial transcription factors; format: cell-based, human; conditions: FIG. 2E; for PGC1α and PGC1β transcript levels (abundance of mitochondrial transcription factors): 48 hours or more of treatment; for JUN transcript levels: normal human fibroblasts, six hours of treatment
Method: Following the manufacturer's protocols, DNase I-treated cDNA was synthesized using Superscript III or Thermoscript reverse transcriptase (Invitrogen). PCR reactions were performed in duplicate on the Roche Lightcycler 3.5 (Basel, Switzerland) or the Bio-Rad iCycler (Hercules, Calif.) using Quantitech SYBR green PCR mix (Qiagen, Valencia, Calif.). GeNorm software calculated a normalization factor for each sample using the relative amounts of at least two of the following reference genes, β2-microglobulin, glyceraldehyde-6-phosphate, actin, and/or eukaryotic elongation factor 1A (Vandesompele et al., 2002).
The relative gene expression for each treatment compared to untreated normal human fibroblasts was calculated and the fold change (drug treated/untreated) is shown.

SIRT1 = SIRT1 protein expression in normal human fibroblasts; format: cell-based
human recombinant SIRT1 = biological target: T1, human recombinant SIRT1 (Homo sapiens, UniProt Q96EB6); assay: Fluorescence-based SIRT1 activity assay; format: biochemical; conditions: for SIRT1 activity: low and high (10 times) concentration, FIG. 9
T1 construct: purchased Cayman Chemical Company 10010401
T1 sequence (Q96EB6 1-747): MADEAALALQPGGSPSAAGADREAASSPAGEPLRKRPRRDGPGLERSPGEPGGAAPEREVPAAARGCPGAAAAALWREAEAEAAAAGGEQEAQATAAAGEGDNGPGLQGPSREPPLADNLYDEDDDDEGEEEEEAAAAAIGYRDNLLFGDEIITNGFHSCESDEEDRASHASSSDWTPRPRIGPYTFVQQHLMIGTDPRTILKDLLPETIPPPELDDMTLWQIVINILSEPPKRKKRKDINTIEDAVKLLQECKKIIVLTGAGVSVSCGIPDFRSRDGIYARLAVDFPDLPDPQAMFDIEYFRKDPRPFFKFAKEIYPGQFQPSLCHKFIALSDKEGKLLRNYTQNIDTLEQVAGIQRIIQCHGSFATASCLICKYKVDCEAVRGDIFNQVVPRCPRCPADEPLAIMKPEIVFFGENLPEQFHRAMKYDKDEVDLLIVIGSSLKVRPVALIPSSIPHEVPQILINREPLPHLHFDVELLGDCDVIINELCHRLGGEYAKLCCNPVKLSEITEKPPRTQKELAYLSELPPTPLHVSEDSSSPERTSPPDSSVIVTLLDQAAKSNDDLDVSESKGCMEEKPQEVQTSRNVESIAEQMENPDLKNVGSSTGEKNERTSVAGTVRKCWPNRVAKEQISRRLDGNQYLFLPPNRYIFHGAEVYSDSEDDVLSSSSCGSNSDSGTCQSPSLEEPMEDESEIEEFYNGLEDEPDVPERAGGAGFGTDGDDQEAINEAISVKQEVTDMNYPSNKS
Method: A fluorescence-based SIRT1 activity assay was performed in triplicate following the manufacturer's protocol (10010401; Cayman Chemical Company, Ann Arbor, Mich., USA). The percent developer interference was below 3% for each small molecule. The percent fluorophore interference was below 9% for each small molecule. The acceptable interference values were ≦10%.
To determine whether SIRT1 activation was a common biochemical activity of the small molecules under study, a fluorescence-based in vitro SIRT1 activity assay was performed with two concentrations of each drug: that used to treat normal primary human fibroblasts in the experiments reported here (low), and 10 times that concentration, which is lethal in cell culture (high). […] This was a non-cell-based assay, and therefore, it is difficult to determine the effects of 4PBA and SFN on SIRT1 activity in vivo. Regardless, while SIRT1 activation may play a role in the induction of cellular stress responses (Anastasiou et al., 2006), direct biochemical activation or inhibition of SIRT1 is not necessary for the common pharmacological induction of the adaptive cell survival response by all four small molecules.
SIRT1 activity assay. SIRT1 activity was measured by incubating an acetylated lysine substrate with human recombinant SIRT1, cosubstrate NAD+ and the indicated concentration of each small molecule. The percent inhibition of SIRT1 is plotted. (Bars=SEM for triplicate measurements; *p≦0.05; paired t-test).

[1] = system: BIP, phosphorylated eIF2α, XBP1; assay: Immunoblot analyses of UPR protein expression and XBP1 splicing; format: cell-based, human
Method: Cell lysates were collected in mammalian protein extraction reagent (m-PER; Thermo Scientific, Rockford, Ill.) plus 1×protease inhibitor (Sigma-Aldrich) and 1×Halt phosphatase inhibitor (Thermo Scientific). Denatured SDS-PAGE and immunoblot analyses were performed using the following antibodies: phosphorylated JNK and β-actin from Santa Cruz Biotechnology, HSP70, HSP90, BIP, phosphorylated eIF2α, and XBP1 from Cell Signaling, APG8 (Abgent, San Diego, Calif.), and SOD2 (Stressgen, Ann Arbor, Mich.). Quantitation was performed using a Fuji Intelligent Dark box II, FUJI LAS-1000 Lite software and Image Gauge v4.22 software (Tokyo, Japan).
Expression of key components of the HSR, UPR, the autophagic response, and the antioxidant response were monitored at the transcriptional, translational, and/or post-translational level. These responses are known to be transiently activated in response to various cellular stressors. The degree of induction of each component can vary depending on the metabolic state of the cell (e.g., confluency, cell passage number) (Kultz 2003; Lallemand et al., 1998; Westerheide et al., 2009). Due to the transient nature of these responses, several components of each pathway were monitored at various time points within a 24 hour treatment. At least two normal human fibroblast lines were tested in three or more independent experiments. […] The average of the maximal increase in protein expression within a 24 hour time frame was also compared to the untreated sample. Activation of each pathway was assessed by an increase in one or more components of each pathway.
UPR markers evaluated included the central UPR regulator glucose regulated protein 78 (BIP) and other components that are stimulated after the activation of the three ER transmembrane receptors: PKR-like ER kinase (PERK), inositol requiring 1 (IRE1), and activating transcription factor 6 (Fedoroff 2006). […] 2 alpha (eIF2a) is phosphorylated by PERK, attenuates general translation, and induces activating transcription factor 4 (ATF4). CHOP promotes reactivation of PERK. XBP1 mRNA is non-conventionally spliced by the endonuclease activity of IRE1 upon UPR activation.
Normal human fibroblasts were treated with drugs as indicated. The expression of the UPR genes ATF4, CHOP, and BIP was measured as described in FIG. 2E. […] Normal human fibroblasts were treated at various time points and the average of the maximum protein expression of BIP (78 kDa) and phosphorylated eIF2α (38 kDa) is plotted as in FIG. 2F. Actin (43 kDa) was used as a loading control and is the same blot as FIG. 2F. UT denotes untreated cells. M denotes marker lane. […] Normal human fibroblasts were treated. The expression of the unspliced form (XBP1-us; 33 kDa) and the activated and spliced form of XBP1 (XBP1-s; 54 kDa) was analyzed by immunoblotting. BP1-s is a larger protein than XBP1-us due to non-canonical mRNA splicing which results in a larger carboxy-terminal domain. […] The average of the maximum expression of XBP1-s (within 24 hrs.) is plotted as in FIG. 2F. Actin was used as a loading control.

JNK pathway = assay: Immunoblot analysis of JNK phosphorylation; format: cell-based; conditions: normal human fibroblasts, within 24 hours; FIG. 2F
Method: Normal human fibroblasts were treated at various time points. Treatment was initiated at the indicated times prior to collection. The average of the maximum protein expression (within 24 hours) for three or more independent experiments is shown as fold change (drug treated/untreated). Actin (43 kDa) was the loading control. M denotes the marker lane. […] The * statistically significant increase in a measurement between drug treated and untreated or control samples or a statistically significant decrease in a measurement between drug treated and drug treated samples in the presence of SP600125 (p≦0.05) (n≧3 independent experiments unless otherwise noted) (Bars=SEM).

[2] = normal human fibroblasts, FIG. 4B

Row | Compound | PGC1α and PGC1β transcript levels (abundance of mitochondrial transcription factors) (JUN, PGC1α and PGC1β) | JUN transcript levels (JUN, PGC1α and PGC1β) | SIRT1 protein expression (SIRT1) | SIRT1 activity (human recombinant SIRT1) | BIP expression at the translational level [1, 2] | JNK pathway (JNK phosphorylation) (JNK pathway) | inhibition at 5000 µM (human recombinant SIRT1; 5 mM) [%] | inhibition at 50000 µM (human recombinant SIRT1; 50 mM) [%] | BIP increase at the translational level ([1]; in vitro sulforaphane studies) | amount of spliced XBP1 protein increase ([1]; in vitro sulforaphane studies) | total amount of XBP1 protein increase ([1]; in vitro sulforaphane studies) | eIF2α phosphorylation [1, 2] | pro-survival capabilities of all three UPR branches ([1]; transcriptional, post-transcriptional, translational and post-translational levels) | inhibition of SIRT1 activity (human recombinant SIRT1; 50 mM, high) [%]
1 | NC(=O)NO [HU, hydroxyurea] | increased | significantly increased | no marked changes | no effect | significantly increased | activated |  |  |  |  |  |  |  | 
2 | CC(/C=C/C(=O)NO)=C\[C@@H](C)C(=O)c1ccc(N(C)C)cc1 [TSA, trichostatin A] | increased | significantly increased | no marked changes | no effect | significantly increased | activated |  |  |  |  |  |  |  | 
3 | C[S@@+]([O-])CCCCN=C=S [SFN, 1-isothiocyanato-4R-(methylsulfinyl)butane] | increased | not consistently changed | no marked changes |  | significantly increased | activated | 14 | 40 | 2-3 fold | 3-4 | 3-4 | modestly increased | activated | 
4 | 4-phenylbutyrate [4PBA] | increased | significantly increased | no marked changes |  | significantly increased | activated |  |  |  |  |  |  |  | 54
